Assay results taken from US20030104974A1, “Dual inhibitorsof PDE 7 and PDE 4” (priority 2001, published 2003).
Like-named read-outs stand apart in the source and are kept apart here.

Experiments:
[1] = test system: Lipopolysaccharide (LPS) induced tumor necrosis factor (TNF) production; test: LPS induced TNF production in mice (Examples I-1, I-2); type: in vivo; details: for reduction in serum TNF: Example I-1; for inhibited TNF production: Example I-2
Procedure: Mice were exposed to lipopolysaccharide to induce production of tumor necrosis factor as described by Cornwell, et. al. (Lipopolysaccharide, but not lethal infection, releases tumor necrosis factor in mice. Cornwell, R. D.; Golenbock, D. T.; Proctor, R. A. Adv.; Exp. Med. Biol. (1990), 256(Endotoxin), 585-8.). The mice were divided in to groups of eight animals each. All animals received an intraperitoneal (IP) injection of 50 μg/kg of LPS. The vehicle control group of animals received 0.2 mL of a vehicle of tween80 (5%), 95% ethanol (5%) and water 90%, sixty minutes prior to administration of LPS, and an IP injection of 0.2 mL of water fifteen minutes prior to administration of LPS. […] A group of mice (F1 group) were administered 0.2 mL of a vehicle of tween80 (5%), 95% ethanol (5%) and water 90%, sixty minutes prior to administration of LPS, and Example F1, at a dose of 7.5 mg/kg, IP in water, fifteen minutes prior to administration of LPS. […] A group of mice (dexamethasone group) were administered a 5 mg/kg dose of dexamethasone in a vehicle of tween80 (5%), 95% ethanol (5%) and water 90%, sixty minutes prior to administration of LPS, and 0.2 mL of water IP, fifteen minutes prior to administration of LPS.
Cilomilast inhibited TNF production by 56% (p<0.05). […] Finally the dexamethasone control inhibited TNF production 94%.

PDE5 = target: T1, PDE5 (Homo sapiens, UniProt O76074); test: SPA assay, PDE5 (human platelet, 3H-cyclic GMP substrate); type: biochemical
T1 construct: PDE5, human platelet; from tissue; host or cells: human platelet
Procedure: (§1) Inhibition of PDE activity in Hut78 cell lysate was determined using an SPA specific for cAMP (Amersham Pharmacia Biotech, Buckinghamshire, UK) according to the manufacturers instructions with minor modifications. Enzyme assays were performed at room temperature in the presence of 50 mM Tris HCl, pH7.5, containing 8.3 mM MgCl2, 1.7 mM EGTA and 0.5 mg/mL BSA. Each assay was performed in a 100 μL reaction volume in 96 well microtitre plates containing the above buffer, 0.3 ul of Hut78 cell lysate treated with 2 uM Zardaverine to inhibit PDE3 and PDE4, 0.05 uCi of [5′,8-3H] Adenosine 3′,5′-cyclic phosphate as an ammonium salt for 20 min. The reaction was terminated by the addition of 50 μl PDE SPA beads (1 mg) water with 10 mM cold cAMP (Sigma, St. Louis Mo.). The reaction mix was allowed to settle for 20 minutes before counting in a Top Count-NXT scintillation counter (Packard BioScience, Meriden, Conn.). […] The following PDEs/activators and enzyme sources were used: PDE1, bovine (Sigma St Louis), calmodulin; PDE2, rat kidney, cGMP; PDE3, human platelet; PDE4, rat kidney; PDE5, human platelet, and PDE6, bovine retina.
(§2) The LPS human PBMC TNF production assay was performed as described above.

PDE3 = target: T2, PDE3 (Homo sapiens, UniProt Q14432); test: SPA assay, PDE3 (human platelet); type: biochemical
T2 construct: PDE3, human platelet; from tissue; host or cells: human platelet
T2 sequence (Q14432 whole entry): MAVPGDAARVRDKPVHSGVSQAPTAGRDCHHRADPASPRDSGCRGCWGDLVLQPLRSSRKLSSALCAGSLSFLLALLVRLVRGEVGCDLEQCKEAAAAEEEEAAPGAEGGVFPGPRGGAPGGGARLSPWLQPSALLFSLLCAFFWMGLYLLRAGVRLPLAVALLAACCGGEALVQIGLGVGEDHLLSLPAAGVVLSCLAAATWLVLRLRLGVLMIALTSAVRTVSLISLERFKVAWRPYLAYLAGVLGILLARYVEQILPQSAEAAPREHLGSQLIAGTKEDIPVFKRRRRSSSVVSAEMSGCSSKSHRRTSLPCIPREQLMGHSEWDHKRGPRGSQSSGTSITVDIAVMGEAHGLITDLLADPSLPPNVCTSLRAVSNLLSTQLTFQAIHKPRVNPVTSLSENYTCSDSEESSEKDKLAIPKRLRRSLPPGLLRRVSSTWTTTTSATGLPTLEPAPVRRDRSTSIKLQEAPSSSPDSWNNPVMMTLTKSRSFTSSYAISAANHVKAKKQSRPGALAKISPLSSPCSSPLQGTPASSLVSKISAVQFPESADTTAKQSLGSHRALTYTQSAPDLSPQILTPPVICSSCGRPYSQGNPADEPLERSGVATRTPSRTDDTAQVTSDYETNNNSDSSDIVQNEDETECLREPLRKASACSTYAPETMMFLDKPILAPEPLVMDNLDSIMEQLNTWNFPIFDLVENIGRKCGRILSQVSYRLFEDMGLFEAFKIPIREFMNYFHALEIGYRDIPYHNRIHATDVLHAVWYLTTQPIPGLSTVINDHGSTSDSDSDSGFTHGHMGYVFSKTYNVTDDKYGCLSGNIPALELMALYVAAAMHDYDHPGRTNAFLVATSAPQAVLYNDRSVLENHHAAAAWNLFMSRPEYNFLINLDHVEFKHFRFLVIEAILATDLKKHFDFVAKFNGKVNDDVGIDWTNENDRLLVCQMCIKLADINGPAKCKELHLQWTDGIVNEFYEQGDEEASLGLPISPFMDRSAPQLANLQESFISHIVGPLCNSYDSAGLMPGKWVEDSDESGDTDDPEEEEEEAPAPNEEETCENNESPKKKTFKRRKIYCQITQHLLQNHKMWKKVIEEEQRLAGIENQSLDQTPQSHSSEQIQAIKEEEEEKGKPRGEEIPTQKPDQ
Procedure: as §1, §2

[2] = Pharmacokinetic data in mice for Example F1 and rolipram; type: in vivo; details: for Cmax: mouse, plasma
PDE6 = target: T3, PDE6 (Bos taurus, UniProt P11541+P23439); test: SPA assay, PDE6 (bovine retina, 3H-cyclic GMP substrate); type: biochemical
T3 construct: PDE6, bovine retina; from tissue; host or cells: bovine retina
T3 sequence (P11541 2-856 limits assumed): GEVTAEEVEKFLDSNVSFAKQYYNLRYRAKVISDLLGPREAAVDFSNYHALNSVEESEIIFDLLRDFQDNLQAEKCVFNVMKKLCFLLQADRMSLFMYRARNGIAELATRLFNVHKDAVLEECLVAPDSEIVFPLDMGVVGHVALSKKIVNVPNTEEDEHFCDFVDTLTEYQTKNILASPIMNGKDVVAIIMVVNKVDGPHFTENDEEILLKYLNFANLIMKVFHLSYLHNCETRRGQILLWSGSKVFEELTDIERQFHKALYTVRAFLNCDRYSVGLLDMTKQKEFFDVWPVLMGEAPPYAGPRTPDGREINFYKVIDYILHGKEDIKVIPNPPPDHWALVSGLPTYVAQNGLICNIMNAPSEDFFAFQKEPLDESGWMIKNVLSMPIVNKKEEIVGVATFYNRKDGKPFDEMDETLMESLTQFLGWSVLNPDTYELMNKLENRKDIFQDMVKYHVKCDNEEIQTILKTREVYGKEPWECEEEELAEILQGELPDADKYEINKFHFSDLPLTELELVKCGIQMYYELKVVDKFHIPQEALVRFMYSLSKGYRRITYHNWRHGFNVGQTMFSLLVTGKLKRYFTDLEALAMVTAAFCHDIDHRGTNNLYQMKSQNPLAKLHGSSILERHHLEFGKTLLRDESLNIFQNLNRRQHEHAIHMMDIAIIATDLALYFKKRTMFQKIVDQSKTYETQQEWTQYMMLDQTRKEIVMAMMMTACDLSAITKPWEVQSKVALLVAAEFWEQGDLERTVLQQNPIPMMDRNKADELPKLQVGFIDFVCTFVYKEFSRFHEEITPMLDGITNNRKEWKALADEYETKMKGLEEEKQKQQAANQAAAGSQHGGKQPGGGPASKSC
T3 sequence (P23439 2-850 limits assumed): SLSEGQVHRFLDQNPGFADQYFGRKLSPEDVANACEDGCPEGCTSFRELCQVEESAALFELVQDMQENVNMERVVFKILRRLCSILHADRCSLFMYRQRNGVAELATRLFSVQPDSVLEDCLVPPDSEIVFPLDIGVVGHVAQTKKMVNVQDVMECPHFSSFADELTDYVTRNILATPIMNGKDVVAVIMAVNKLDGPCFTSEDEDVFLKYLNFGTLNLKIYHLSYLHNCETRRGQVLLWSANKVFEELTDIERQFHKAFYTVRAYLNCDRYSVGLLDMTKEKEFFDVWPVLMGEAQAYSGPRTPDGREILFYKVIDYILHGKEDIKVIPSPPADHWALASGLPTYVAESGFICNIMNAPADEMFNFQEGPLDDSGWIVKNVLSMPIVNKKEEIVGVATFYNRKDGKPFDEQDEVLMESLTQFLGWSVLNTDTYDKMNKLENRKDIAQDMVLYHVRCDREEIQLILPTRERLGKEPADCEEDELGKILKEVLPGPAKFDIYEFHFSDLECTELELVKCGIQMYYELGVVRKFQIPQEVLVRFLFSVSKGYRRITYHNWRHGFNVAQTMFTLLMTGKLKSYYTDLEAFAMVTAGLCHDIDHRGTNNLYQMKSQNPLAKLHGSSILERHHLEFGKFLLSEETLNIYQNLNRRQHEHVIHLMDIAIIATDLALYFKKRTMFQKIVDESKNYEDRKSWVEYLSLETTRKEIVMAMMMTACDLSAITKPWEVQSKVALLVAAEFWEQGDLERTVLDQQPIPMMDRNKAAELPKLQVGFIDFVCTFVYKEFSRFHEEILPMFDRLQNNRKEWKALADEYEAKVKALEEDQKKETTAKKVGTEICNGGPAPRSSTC
Procedure: as §1, §2

PDE7 = target: T4, PDE7 (Homo sapiens, UniProt Q13946); test: SPA assay for cAMP, PDE7 in Hut78 cell lysate treated with Zardaverine; type: biochemical; details: for IC50: Hut78 cell lysate, SPA
T4 construct: endogenous in cells; host or cells: Hut78 cells (crude lysate)
T4 sequence (Q13946 whole entry): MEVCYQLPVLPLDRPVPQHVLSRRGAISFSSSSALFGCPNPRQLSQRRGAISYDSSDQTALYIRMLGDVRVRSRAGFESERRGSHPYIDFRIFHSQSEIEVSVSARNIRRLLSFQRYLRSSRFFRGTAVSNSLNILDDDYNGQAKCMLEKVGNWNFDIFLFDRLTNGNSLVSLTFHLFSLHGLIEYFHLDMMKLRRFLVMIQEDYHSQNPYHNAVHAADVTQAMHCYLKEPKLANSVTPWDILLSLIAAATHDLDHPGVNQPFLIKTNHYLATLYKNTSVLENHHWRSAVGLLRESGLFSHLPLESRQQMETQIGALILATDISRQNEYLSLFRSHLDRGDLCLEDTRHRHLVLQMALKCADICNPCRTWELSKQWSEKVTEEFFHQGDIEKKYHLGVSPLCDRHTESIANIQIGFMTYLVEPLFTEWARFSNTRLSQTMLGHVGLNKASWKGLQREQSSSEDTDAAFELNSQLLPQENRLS
Procedure: Hut78 cells were grown in 10% FCS in Iscoves Modified Dulbecco's Medium (Gibco BRL-Life Technologies, Grand Island, N.Y.) with antibiotics. Cells were centrifuged and resuspended in four volumes of [40 mM Tris (pH 7.5)/50 μM EDTA/200 μM PMSF with a cocktail of Protease inhibitors (Boehringher Mannheim, Indianapolis, Ind.)] at 4 C. Cells were homogenized using a Virtis homogenizer, and the lysate was centrifuged twice for 15 min at 15,000×g. Glycerol was added to a final volume of 50% for storage at −20C.
as §1, §2

PDE1 = test: SPA assay, PDE1 (3H-cyclic GMP substrate, calmodulin); type: biochemical; details: bovine PDE1, calmodulin
Procedure: as §1, §2

PDE4 = test: SPA assay, PDE4 (rat kidney); type: biochemical
Procedure: as §1, §2

[3] = test system: LPS human PBMC TNF production; test: LPS human PBMC TNF production assay; type: cell-based; details: LPS 6.25 ng/ml, 4 h
Procedure: Peripheral blood mononuclear cells (PBMC) were isolated from whole blood by density gradient centrifugation over Lymphoprep, 1.077. Cells were plated into 96 well U-bottom plates at 2.5×10^5 cells/well in 10% FBS RPMI 1640 (Life Technologies/Gibco-BRL) containing 10 ug/ml anti-CD3 (G19-4, Bristol-Myers Squibb P.R.I., Princeton, N.J.) and lug/ml anti-CD28 (9.3, Bristol-Myers Squibb P.R.I.) in the presence and absence of inhibitors. DMSO (used as a solvent for inhibitors) was added to the medium at 0.1% final concentration. The total volume per well was 200 μL. Cells were incubated at 37 C. 5% CO2 for 3 days, at which time 0.5 μCi of ^3H-thymidine was added to each well. Six hours following the addition of ^3H-thmidine, the plates were harvested onto filter plates, 30 ul EcoLite scintillant (ICN, Costa Mesa, Calif.) was added per well, and plates read on a Top Count-NXT scintillation counter.
The ability of compounds to inhibit the production and secretion of TNFα from leukocytes was performed using either PBMC (obtained as described above) or the THP-1 cell line as a source of monocytes. Compounds were diluted in RPMI 1640 supplemented with 10% FBS and DMSO at a final concentration of 0.2%. […] Soluble TNFα was detected by ELISA developed by R&D Systems (Minneapolis, Minn.) according to the manufacturers instructions. […]

[4] = mice, F1 30 mg/kg IP, rolipram 10 mg orally

Compound | IC50 (PDE5) [µM] | IC50 (PDE3) [µM] | IC50 (PDE6) [µM] | IC50 (PDE7) [µM] | IC50 (PDE1) [µM] | IC50 (PDE4) [µM] | IC50 [3] [µM] | also measured
CCOC(=O)c1sc(Nc2nc(NCc3cc(OC)c(OC)c(OC)c3)cc(N3CCC(N(C)C)CC3)n2)nc1C [Example F1, 2-[[4-[4-(Dimethylamino)-1-piperidinyl]-6-[[(3,4,5-trimethoxphenyl)methyl]amino]-2-pyrimidinyl]amino]-4-methyl-5-thiazolecarboxylic Acid, Ethyl Ester] | 2.8 | 32 | 7.5 | 0.03 | 4.3 | 3 | – | reduction in serum TNF ([1]; F1 7.5 mg/kg IP 15 min prior to LPS 50 μg/kg IP, vs vehicle): 52%; plasma concentration of F1 compared with its PDE4 IC50 ([2]; mice, F1 30 mg/kg): does not reach the PDE4 IC50; change of Cmax of F1 by co-administration of rolipram [2, 4]: essentially unchanged; Cmax ([2]; mice, F1 30 mg/kg IP alone, read-out: Cmax, F1): 2200 nM; selective for PDE7 over PDE4 (PDE7; ratio of PDE4 and PDE7 IC50): 100 fold
CCOC(=O)c1sc(Nc2nc(N3CCC(O)CC3)cc(N3CCC(O)CC3)n2)nc1C [Example F2, 2-[4,6-Bis-(4-hydroxy-piperidin-1-yl)-pyrimidin-2-ylamino]-4-methyl-thiazole-5-carboxylic Acid Ethyl Ester] | 0.72 | 20 | 0.73 | 0.06 | 4.8 | 3.2 | > 25 | inhibited TNF production ([1]; F2 30 mg/kg, not statistically significant): 33.7%
COc1ccc([C@]2(C#N)CC[C@@H](C(=O)O)CC2)cc1OC1CCCC1 [cilomilast, reference compound] | > 10 | > 10 | – | > 50 | 3.4 | 0.03 | 0.43 | inhibited TNF production ([1]; cilomilast 1 mg/kg): 56%
C[C@@H]1C[C@H]2[C@@H]3CCC4=CC(=O)C=C[C@]4(C)[C@@]3(F)[C@@H](O)C[C@]2(C)[C@@]1(O)C(=O)CO [dexamethasone] | – | – | – | – | – | – | – | reduction in serum TNF ([1]; dexamethasone 5 mg/kg 60 min prior to LPS): 93%; inhibited TNF production ([1]; dexamethasone control): 94%
COc1ccc(C2CNC(=O)C2)cc1OC1CCCC1 (centres unmarked) [rolipram, reference compound] | – | – | – | > 10 | – | – | – | reduction in serum TNF ([1]; rolipram 5 mg/kg oral 60 min prior to LPS 50 μg/kg IP, vs vehicle): 54%; Cmax of Rolipram reduced by a factor by co-administration with F1 [2, 4]: 3 factor; Cmax ([2]; po, 10 mg): 290 nM
